The first test deals with T1, human recombinant FKBP52 (Homo sapiens, UniProt Q02790).
T1 sequence (Q02790 1-459): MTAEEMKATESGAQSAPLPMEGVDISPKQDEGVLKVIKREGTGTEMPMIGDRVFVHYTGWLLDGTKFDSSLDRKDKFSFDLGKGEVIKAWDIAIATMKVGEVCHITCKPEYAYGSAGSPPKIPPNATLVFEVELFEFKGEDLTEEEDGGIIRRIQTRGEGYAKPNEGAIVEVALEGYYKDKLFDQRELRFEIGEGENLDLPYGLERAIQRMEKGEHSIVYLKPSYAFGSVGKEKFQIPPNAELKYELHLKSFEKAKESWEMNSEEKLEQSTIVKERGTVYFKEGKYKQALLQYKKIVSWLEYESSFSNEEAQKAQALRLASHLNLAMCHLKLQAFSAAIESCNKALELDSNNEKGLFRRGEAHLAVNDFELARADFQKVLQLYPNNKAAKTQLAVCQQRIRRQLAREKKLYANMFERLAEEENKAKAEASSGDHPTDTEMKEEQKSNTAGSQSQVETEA
Briefly: coupled colorimetric PPIase assay, Ki,app against FKBP52. The class given is biochemical. To be noted: human recombinant FKBP52, substrate succinyl-ALPF-pNA, printed in the IC50 (nm) FKBP-12 column, read-out: Ki FKBP-52.
Sequence of human recombinant FKBP-12 (P62942 whole entry): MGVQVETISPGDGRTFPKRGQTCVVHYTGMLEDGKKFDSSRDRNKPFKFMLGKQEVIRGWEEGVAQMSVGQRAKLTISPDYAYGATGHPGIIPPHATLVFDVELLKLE
As for `NCc1ccc(OCc2nc([C@@H]3CCCCN3S(=O)(=O)c3nc4ccccc4[nH]3)no2)cc1` [Example 11, 4-(3-[(2S)-1-(1H-Benzo[d]imidazol-2-ylsuffonyl)-2-piperidyl]-1,2,4-oxadiazol-5-ylmethoxy)benzylamine], the Ki was 685 nM.

Another test addresses human recombinant FKBP-12 (Homo sapiens, UniProt P62942). In words: coupled colorimetric PPIase (rotamase) assay, IC50 against FKBP-12. The class given is biochemical. The conditions noted are these: human recombinant FKBP-12, substrate succinyl-AFPF-pNA, 10° C., pH 8.0. From the text:
The affinity of the compounds of the formula (I) for FKBP-12 can be determined in vitro in a coupled colorimetric PPlase assay using similar procedures to published methods (e.g. see Kofron, J. L., et al., Biochemistry, 1991, 30, 6127-6134, Zarnt, T., et al., Biochem. J. 1995, 305, 159-164, Holt, D. A., et al., J. Am. Chem. Soc., 1993,115, 9925-9938). In these methods, the cis-trans isomerisation of a hydrophobic amino acid-proline bond in a tetrapeptide substrate (e.g. the phenylalanine-proline bond in N-succinyl-ala-phepro-phe-p-nitroanilide [succinyl-AFPF-pNA]) can be determined by monitoring cleavage of pNA from the transPro-containing peptide by an excess of chymotrypsin.
The IC50 (the concentration of the compound of the formula (I) producing 50% inhibition) values were determined using the following assay methodology. Assay buffer (2.175 ml) (50 mM 4-(2-hydroxyethyl)-1-piperazineethanesulphonic acid (HEPES), 100 mM NaCl, 1 mM dithiothreitol (DTT), pH 8.0) is equilibrated to 10° C. in a cuvette. 12.5 μl of a solution of the present compound in DMSO, 250 μl of a 60 mg/ml solution of a-chymotrypsin in 1 mM aqueous hydrochloric acid and then 50 μl of a solution of human recombinant FKBP-12 (4.5 μM) in assay buffer are added and mixed. The reaction is initiated by addition of 12.5 μl of a solution of 20 mM succinyl-AFPF-pNA in DMSO. The absorbance at 390 nm is monitored for one minute collecting data every 0.25 second. Data are fitted with a first order rate equation with offset and the rate constant obtained corrected for the rate of uncatalysed isomerisation of the substrate. The rate constant determined at different inhibitor concentrations (10 nM to 100 μM) is expressed as % inhibition of the control rate constant. The IC50 is estimated using a nonlinear least squares curve fitting routine of the sigmoidal dose response data.
For `CNCc1ccc(OCc2nc(C3CCCCN3S(=O)(=O)c3nc4ccccc4[nH]3)no2)cc1` (centres unmarked) [Example 14, N-[4-(3-[1-(1H-Benzo[d]imidazol-2-ylsulfonyl)-2-piperidyl]-1,2,4-oxadiazol-5-ylmethoxy)benzyl]-N-methylamine], the IC50 worked out at 91 nM. As for `O=S(=O)(CC1CCCCC1)N1CCCC[C@H]1c1noc(COC2CCNCC2)n1` [Example 23, 3-[(2S)-1-Cyclohexylmethylsulfonyl-2-piperidyl]-5-[4-piperidyloxymethyl]-1,2,4-oxadiazole], the IC50 was 336 nM. As for `NCc1ccc(-c2nc([C@@H]3CCCCN3S(=O)(=O)CC3CCCCC3)no2)o1` [Example 25, [5-(3-(2S)-1-[(Cyclohexylmethyl)sulfonyl]-2-piperidyl-1,2,4-oxadiazol-5-yl)-2-furyl]methylamine], the IC50 amounted to 81 nM. `O=S(=O)(c1nc2ccccc2[nH]1)N1CCCC[C@H]1c1noc(Cc2ccccc2)n1` [Example 1, 1H-Benzo[d]imidazol-2-yl[(2S)-2-(5-benzyl-1,2,4-oxadiazol-3-yl)-1-piperidyl]sulfone]: the IC50 was determined as 95 nM.

Turning to `O=S(=O)(c1ccc(F)cc1)N1CCCC[C@H]1c1nnn(Cc2ccccc2)n1` [Example 43], the IC50 amounted to 1670 nM. On the same count and under the same terms, for `O=S(=O)(c1nc2ccccc2[nH]1)N1CCCCC1c1noc(-c2ncccn2)n1` (centres unmarked) [Example 65] the value was 442 nM; for `O=S(=O)(c1ccc(F)cc1)N1CCCC[C@H]1c1nnc(CCc2ccccc2)o1` [Example 42], 2010 nM.

Values taken from patent US6610707B1, “Heterocyclic compounds as inhibitors of rotomase enzymes” (Pfizer Inc., priority 1998, dated 2003).
